Columns and labels:
Assay in all cases: relative viability (nuclei count vs DMSO), 5 days (fraction); higher = more cells survive
PC-14 = test system: PC-14
Method in brief: (§1)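 The day after seeding in 1536-well plates, lung cancer cell lines were treated by pin tool with a single drug, or with a fixed anchor-drug dose together with five library-drug doses (not always all listed) in √10 steps. After 5 days, a combined fix-and-stain solution (final 0.05% Triton X-100, 1% formaldehyde, 1 ug/ml Hoechst) was added. Nuclei counted on 4× images gave relative viability as treated counts over vehicle counts, reported as the median of duplicate plates.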

IA-LM = test system: IA-LM
Method in brief: as §1

NCI-H1299 = test system: NCI-H1299
Method in brief: as §1

Calu-6 = test system: Calu-6
Method in brief: as §1

NCI-H596 = test system: NCI-H596
Method in brief: as §1

NCI-H1666 = test system: NCI-H1666
Method in brief: as §1

NCI-H661 = test system: NCI-H661
Method in brief: as §1

SK-LU-1 = test system: SK-LU-1
Method in brief: as §1

NCI-H1703 = test system: NCI-H1703
Method in brief: as §1

EBC-1 = test system: EBC-1
Method in brief: as §1

A549 = test system: A549
Method in brief: as §1

NCI-H1944 = test system: NCI-H1944
Method in brief: as §1

## CCNC(=O)c1noc(-c2cc(C(C)C)c(O)cc2O)c1-c1ccc(CN2CCOCC2)cc1 [Luminespib] + CC(C)C[C@H](NC(=O)[C@H](Cc1ccccc1)NC(=O)c1cnccn1)B(O)O [Bortezomib] (partner 0.002 µM)
PC-14; first compound 0.002 µM
  relative viability: 0.956
PC-14; first compound 0.006325 µM
  relative viability: 0.788
PC-14; first compound 0.02 µM
  relative viability: 0.988
PC-14; first compound 0.06325 µM
  relative viability: 0.314
PC-14; first compound 0.2 µM
  relative viability: 0.0725
IA-LM; first compound 0.002 µM
  relative viability: 0.819
IA-LM; first compound 0.006325 µM
  relative viability: 0.951
IA-LM; first compound 0.02 µM
  relative viability: 0.648
IA-LM; first compound 0.06325 µM
  relative viability: 0.067
IA-LM; first compound 0.2 µM
  relative viability: 0.0656
NCI-H1299; first compound 0.002 µM
  relative viability: 1.01
NCI-H1299; first compound 0.006325 µM
  relative viability: 0.999
NCI-H1299; first compound 0.02 µM
  relative viability: 1.04
NCI-H1299; first compound 0.06325 µM
  relative viability: 0.946
NCI-H1299; first compound 0.2 µM
  relative viability: 0.248
Calu-6; first compound 0.002 µM
  relative viability: 1.06
Calu-6; first compound 0.006325 µM
  relative viability: 0.883
Calu-6; first compound 0.02 µM
  relative viability: 1.21
Calu-6; first compound 0.06325 µM
  relative viability: 0.141
Calu-6; first compound 0.2 µM
  relative viability: 0.159
NCI-H596; first compound 0.002 µM
  relative viability: 1.03
NCI-H596; first compound 0.006325 µM
  relative viability: 0.915
NCI-H596; first compound 0.06325 µM
  relative viability: 1.07
NCI-H596; first compound 0.2 µM
  relative viability: 0.999
NCI-H1666; first compound 0.002 µM
  relative viability: 0.871
NCI-H1666; first compound 0.006325 µM
  relative viability: 0.86
NCI-H1666; first compound 0.02 µM
  relative viability: 0.74
NCI-H1666; first compound 0.06325 µM
  relative viability: 0.725
NCI-H1666; first compound 0.2 µM
  relative viability: 0.74
NCI-H661; first compound 0.002 µM
  relative viability: 0.886
NCI-H661; first compound 0.006325 µM
  relative viability: 0.773
NCI-H661; first compound 0.02 µM
  relative viability: 0.685
NCI-H661; first compound 0.06325 µM
  relative viability: 0.527
NCI-H661; first compound 0.2 µM
  relative viability: 0.182
SK-LU-1; first compound 0.002 µM
  relative viability: 1.19
SK-LU-1; first compound 0.006325 µM
  relative viability: 1.02
SK-LU-1; first compound 0.02 µM
  relative viability: 0.716
SK-LU-1; first compound 0.06325 µM
  relative viability: 0.199
SK-LU-1; first compound 0.2 µM
  relative viability: 0.203
NCI-H1703; first compound 0.002 µM
  relative viability: 0.494
NCI-H1703; first compound 0.006325 µM
  relative viability: 0.415
NCI-H1703; first compound 0.02 µM
  relative viability: 0.224
NCI-H1703; first compound 0.06325 µM
  relative viability: 0.13
NCI-H1703; first compound 0.2 µM
  relative viability: 0.14
EBC-1; first compound 0.002 µM
  relative viability: 0.583
EBC-1; first compound 0.006325 µM
  relative viability: 0.541
EBC-1; first compound 0.02 µM
  relative viability: 0.318
EBC-1; first compound 0.06325 µM
  relative viability: 0.118
EBC-1; first compound 0.2 µM
  relative viability: 0.169

## Cc1csc(=NC2CCCCC2)n1/N=C/c1ccc(O)c(O)c1O [MIM1] + CC1(C)CCC(c2ccc(Cl)cc2)=C(CN2CCN(c3ccc(C(=O)NS(=O)(=O)c4ccc(N[C@H](CCN5CCOCC5)CSc5ccccc5)c(S(=O)(=O)C(F)(F)F)c4)cc3)CC2)C1 [Navitoclax] (partner 0.5 µM)
PC-14; first compound 0.2 µM
  relative viability: 1.02
PC-14; first compound 0.6325 µM
  relative viability: 1.03
PC-14; first compound 2 µM
  relative viability: 0.988
PC-14; first compound 6.325 µM
  relative viability: 0.894
PC-14; first compound 20 µM
  relative viability: 0.133
IA-LM; first compound 0.2 µM
  relative viability: 0.588
IA-LM; first compound 0.6325 µM
  relative viability: 0.713
IA-LM; first compound 2 µM
  relative viability: 0.721
IA-LM; first compound 6.325 µM
  relative viability: 0.195
IA-LM; first compound 20 µM
  relative viability: 0.0808
A549; first compound 0.2 µM
  relative viability: 1.17
A549; first compound 0.6325 µM
  relative viability: 1.24
A549; first compound 2 µM
  relative viability: 1.3
A549; first compound 6.325 µM
  relative viability: 0.843
A549; first compound 20 µM
  relative viability: 0.0781
NCI-H1299; first compound 0.2 µM
  relative viability: 1.06
NCI-H1299; first compound 0.6325 µM
  relative viability: 1.07
NCI-H1299; first compound 2 µM
  relative viability: 1.04
NCI-H1299; first compound 6.325 µM
  relative viability: 1.05
NCI-H1299; first compound 20 µM
  relative viability: 0.974
Calu-6; first compound 0.2 µM
  relative viability: 0.772
Calu-6; first compound 0.6325 µM
  relative viability: 0.93
Calu-6; first compound 2 µM
  relative viability: 0.857
Calu-6; first compound 6.325 µM
  relative viability: 0.205
Calu-6; first compound 20 µM
  relative viability: 0.135
NCI-H596; first compound 0.2 µM
  relative viability: 0.935
NCI-H596; first compound 0.6325 µM
  relative viability: 0.921
NCI-H596; first compound 2 µM
  relative viability: 0.895
NCI-H596; first compound 6.325 µM
  relative viability: 0.806
NCI-H596; first compound 20 µM
  relative viability: 0.7
NCI-H1666; first compound 0.2 µM
  relative viability: 1
NCI-H1666; first compound 0.6325 µM
  relative viability: 1.15
NCI-H1666; first compound 2 µM
  relative viability: 1.11
NCI-H1666; first compound 6.325 µM
  relative viability: 0.727
NCI-H1666; first compound 20 µM
  relative viability: 0.667
NCI-H1944; first compound 0.2 µM
  relative viability: 0.985
NCI-H1944; first compound 0.6325 µM
  relative viability: 1.04
NCI-H1944; first compound 2 µM
  relative viability: 0.845
NCI-H1944; first compound 6.325 µM
  relative viability: 0.938
NCI-H1944; first compound 20 µM
  relative viability: 1.11
SK-LU-1; first compound 0.2 µM
  relative viability: 0.708
SK-LU-1; first compound 0.6325 µM
  relative viability: 0.78
SK-LU-1; first compound 2 µM
  relative viability: 0.957
SK-LU-1; first compound 6.325 µM
  relative viability: 0.824
SK-LU-1; first compound 20 µM
  relative viability: 0.841
NCI-H1703; first compound 0.2 µM
  relative viability: 0.91
NCI-H1703; first compound 0.6325 µM
  relative viability: 1.15
NCI-H1703; first compound 2 µM
  relative viability: 1.03
NCI-H1703; first compound 6.325 µM
  relative viability: 0.135
NCI-H1703; first compound 20 µM
  relative viability: 0.117
EBC-1; first compound 0.2 µM
  relative viability: 0.417
EBC-1; first compound 0.6325 µM
  relative viability: 0.475
EBC-1; first compound 2 µM
  relative viability: 0.367
EBC-1; first compound 6.325 µM
  relative viability: 0.227
EBC-1; first compound 20 µM
  relative viability: 0.166

From the supplement of paper PMC10307832
